Assay results reported in patent publication US11814392B2, “Chromenopyridine-based compounds and methods of making and use thereof” (Rosalind Franklin University of Medicine and Science, priority 2020, dated 2023).

Experiments:
SNB-75 = experiment: NCI 60 five-dose screening, SNB-75
Description: (§1) The National Cancer Institute's Developmental Therapeutic preclinical 60 human cancer cell lines were used for an in vitro screen. […] The one-dose and five-dose experiments were conducted according to standard NCI protocols.
(§2) The human tumor cell lines of the cancer screening panel are grown in RPMI 1640 medium containing 5% fetal bovine serum and 2 mM L-glutamine. For a typical screening experiment, cells are inoculated into 96 well microtiter plates in 100 μL at plating densities ranging from 5,000 to 40,000 cells/well depending on the doubling time of individual cell lines. After cell inoculation, the microtiter plates are incubated at 37° C., 5% CO2, 95% air and 100% relative humidity for 24 h prior to addition of experimental drugs.
(§3) After 24 h, two plates of each cell line are fixed in situ with TCA, to represent a measurement of the cell population for each cell line at the time of drug addition (Tz). […]
(§4) Following drug addition, the plates are incubated for an additional 48 h at 37° C., 5% CO2, 95% air, and 100% relative humidity. […] Bound stain is subsequently solubilized with 10 mM trizma base, and the absorbance is read on an automated plate reader at a wavelength of 515 nm. […] Using the seven absorbance measurements [time zero, (Tz), control growth, (C), and test growth in the presence of drug at the five concentration levels (Ti)], the percentage growth is calculated at each of the drug concentrations levels. Percentage growth inhibition is calculated as: [(Ti−Tz)/(C−Tz)]×100 for concentrations for which Ti>/=Tz [(Ti−Tz)/Tz]×100 for concentrations for which Ti<Tz.
(§5) Three dose response parameters are calculated for each experimental agent. […] The drug concentration resulting in total growth inhibition (TGI) is calculated from Ti=Tz. […] Values are calculated for each of these three parameters if the level of activity is reached; however, if the effect is not reached or is exceeded, the value for that parameter is expressed as greater or less than the maximum or minimum concentration tested.

OVCAR-3 = experiment: NCI 60 five-dose screening, OVCAR-3; format: cell-based, human
RXF 393 = experiment: NCI 60 five-dose screening, RXF 393
Description: (§6) The one-dose and five-dose experiments were conducted according to standard NCI protocols.
as §2
After 24 h, two plates of each cell line are fixed in situ with TCA, to represent a measurement of the cell population for each cell line at the time of drug addition (Tz). Experimental drugs are solubilized in dimethyl sulfoxide at 400-fold the desired final maximum test concentration and stored frozen prior to use. At the time of drug addition, an aliquot of frozen concentrate is thawed and diluted to twice the desired final maximum test concentration with complete medium containing 50 μg/ml gentamicin. Additional four, 10-fold or ½ log serial dilutions are made to provide a total of five drug concentrations plus control. Aliquots of 100 μl of these different drug dilutions are added to the appropriate microtiter wells already containing 100 μl of medium, resulting in the required final drug concentrations.
Following drug addition, the plates are incubated for an additional 48 h at 37° C., 5% CO2, 95% air, and 100% relative humidity. For adherent cells, the assay is terminated by the addition of cold TCA. Cells are fixed in situ by the gentle addition of 50 μl of cold 50% (w/v) TCA (final concentration, 10% TCA) and incubated for 60 minutes at 4° C. […] Bound stain is subsequently solubilized with 10 mM trizma base, and the absorbance is read on an automated plate reader at a wavelength of 515 nm. […] Using the seven absorbance measurements [time zero, (Tz), control growth, (C), and test growth in the presence of drug at the five concentration levels (Ti)], the percentage growth is calculated at each of the drug concentrations levels. Percentage growth inhibition is calculated as: [(Ti−Tz)/(C−Tz)]×100 for concentrations for which Ti>/=Tz [(Ti−Tz)/Tz]×100 for concentrations for which Ti<Tz.
as §5

SF-539 = experiment: NCI 60 five-dose screening, SF-539
Description: as §1, §2, §3, §4, §5

COLO 205 = experiment: NCI 60 five-dose screening, COLO 205
Description: as §1, §2, §3, §4, §5

SK-MEL-5 = experiment: NCI 60 five-dose screening, SK-MEL-5
Description: as §1, §2, §3, §4, §5

786.0 = experiment: NCI 60 five-dose screening, 786.0
Description: as §6, §2
After 24 h, two plates of each cell line are fixed in situ with TCA, to represent a measurement of the cell population for each cell line at the time of drug addition (Tz). Experimental drugs are solubilized in dimethyl sulfoxide at 400-fold the desired final maximum test concentration and stored frozen prior to use. […]
as §4, §5

HS578T = experiment: NCI 60 five-dose screening, HS578T; format: cell-based, human; conditions: HS578T (Breast Cancer), 48 h
SN12C = experiment: NCI 60 five-dose screening, SN12C; format: cell-based, human; conditions: SN12C (Renal Cancer), 48 h
SF-268 = experiment: NCI 60 five-dose screening, SF-268
Description: as §1, §2, §3, §4, §5

[1] = RXF 393 (Renal Cancer), five-dose, 48 h

COc1ccc(SC2c3cc(OC)c(OC)cc3Oc3nc(N)c(C#N)c(N)c32)cc1 (centres unmarked) [Compound 1, 2,4-diamino-7,8-dimethoxy-5-((4-methoxyphenyl)thio)-5H-chromeno[2,3-b]pyridine-3-carbonitrile]
GI50 (SNB-75; Homo sapiens, SNB-75, 48 h): 1.31 µM | CC50 (SNB-75; Homo sapiens, SNB-75, 48 h, read-out: LC50): 5.24 µM | TGI (SNB-75; SNB-75 (CNS Cancer), five-dose, 48 h): 2.62 µM | CC50 (OVCAR-3; Homo sapiens, OVCAR-3, 48 h, read-out: LC50): 5.03 µM | GI50 (OVCAR-3; Homo sapiens, OVCAR-3 (Ovarian Cancer), five-dose, 48 h): 1.06 µM | TGI (OVCAR-3; OVCAR-3 (Ovarian Cancer), five-dose, 48 h): 2.31 µM | GI50 (RXF 393; Homo sapiens, RXF 393, 48 h, RXF 393 (Renal Cancer), five-dose, 48 h): 0.45 µM | CC50 (RXF 393; Homo sapiens, RXF 393, 48 h, read-out: LC50): 4.52 µM | GI50 (RXF 393; [1]): 0.74 µM | TGI (RXF 393; [1]): 2.01 µM | GI50 (SF-539; Homo sapiens, SF-539, 48 h): 1.38 µM | CC50 (SF-539; Homo sapiens, SF-539, 48 h, read-out: LC50): 5.2 µM | TGI (SF-539; SF-539 (CNS Cancer), five-dose, 48 h): 2.68 µM | TGI (COLO 205; COLO 205 (Colon Cancer), five-dose, 48 h): 2.65 µM | GI50 (COLO 205; Homo sapiens, COLO 205, 48 h): 1.29 µM | CC50 (COLO 205; Homo sapiens, COLO 205, 48 h, read-out: LC50): 5.43 µM | GI50 (SK-MEL-5; Homo sapiens, SK-MEL-5, 48 h): 1.5 µM | CC50 (SK-MEL-5; Homo sapiens, SK-MEL-5, 48 h, read-out: LC50): 5.33 µM | TGI (SK-MEL-5; SK-MEL-5 (Melanoma), five-dose, 48 h): 2.82 µM | TGI (786.0; 786.0 (Renal Cancer), five-dose, 48 h): 1.73 µM | GI50 (786.0; Homo sapiens, 786-0, 48 h): 0.49 µM | CC50 (786.0; Homo sapiens, 786-0, 48 h, read-out: LC50): 4.2 µM | TGI (HS578T): 4.16 µM | GI50 (HS578T; Homo sapiens, Hs-578T): 1.8 µM | GI50 (SN12C; Homo sapiens): 1.06 µM | TGI (SN12C): 2.49 µM | GI50 (SF-268; Homo sapiens, SF-268, 48 h): 1.55 µM | CC50 (SF-268; Homo sapiens, SF-268, 48 h, read-out: LC50): 6.05 µM | TGI (SF-268; SF-268 (CNS Cancer), five-dose, 48 h): 3.07 µM
